Tests used:
[1] = system: Restless Legs Syndrome patients; details: cited from earlier work; for effectiveness in RLS: short-term therapy trials of dopamine agonists
[2] = system: patients with RLS; assay: Treatment of 2 patients with RLS (therapeutic history, monotherapies and combination therapy of pramipexole and clonidine)
Description: 1. […] The clonidine was also initially prescribed in a single dose of 0.075 mg two hours before bedtime and increased by 0.075 mg at intervals of 3 days.
2. Treatment with a Combination Therapy of Clonidine and Pramipexole After slowly bringing the clonidine therapy to a complete halt and after a treatment-free period of about 1 week, both patients were treated with a combination of 0.088 mg of pramipexole and 0.075 mg of clonidine. […] After 7 days the dosage of pramipexole had been increased to 0.18 mg and the dosage of clonidine to 0.15 mg, two hours before going to sleep.

[3] = clonidine monotherapy, single dose before bedtime, 0.225 mg (male) / 0.45 mg (female)

Q: With `CCCN(CCC)CCc1cccc2c1CC(=O)N2` [ropinirol] as the compound, how does the “effectiveness in RLS” value [1] read?
A: found to be effective

Q: With `CCCN[C@H]1CCc2nc(N)sc2C1` [pramipexole, (S)-2-amino-6-n-propylamino-4,5,6,7-tetrahydro-benzothiazole] as the compound, how does the “effectiveness in RLS” value [1] read?
A: found to be effective

Q: And the symptoms ([2]; pramipexole monotherapy, 0.088 mg two hours before bedtime, increased to 0.36 mg (male) / 0.27 mg (female) daily, no difference from earlier therapy)?
A: symptoms certainly improved

Q: For `Cc1nnc2n1-c1sc(Br)cc1C(c1ccccc1Cl)=NC2` [Brotizolam], which “falling asleep and sleeping through” value ([2]; previous therapy, prescribed for limited time only) is on record?
A: improved the falling asleep and sleeping through

Q: With `CCN(CC)C(=O)N[C@H]1C=C2c3cccc4[nH]cc(c34)C[C@H]2N(C)C1` [lisuride] as the compound, how does the “effectiveness in RLS” value [1] read?
A: found to be effective

Q: What does the source list for `Clc1cccc(Cl)c1NC1=NCCN1` [clonidine, 2-(2,6-dichloroanilino)-4,5-dihydroimidazole]?
A: perceived symptoms such as paresthesia, compulsive movement and tiredness during the day ([1]; 4 open trials, 2 double-blind placebo-controlled trials, single case study, daily doses 0.1-0.9 mg): (statistically significant) reduction in perceived symptoms; sleep latency (polysomnographic) ([1]; daily doses 0.1-0.9 mg): shortened; quality of sleep, frequency of waking or periodic leg movements in sleep (PLMS) ([1]; polysomnographic, daily doses 0.1-0.9 mg): not affected; compulsive movements [2, 3]: had also improved; paresthesia [2, 3]: felt hardly any paresthesia; quality of sleep and number of times they woke during the night [2, 3]: had not changed

Q: For `C=CCN1C[C@H](C(=O)N(CCCN(C)C)C(=O)NCC)C[C@@H]2c3cccc4[nH]cc(c34)C[C@H]21` [cabergoline], which “effectiveness in RLS” value [1] is on record?
A: found to be effective

Q: With `NC(=O)N1c2ccccc2C=Cc2ccccc21` [Carbamazepine] as the compound, how does the “relief from the complaint” value ([1]; a few partly open trials) read?
A: only partial relief from the complaint

Q: For `N[C@@H](Cc1ccc(O)c(O)c1)C(=O)O` [L-DOPA], which “disadvantage of therapy (loss of effectiveness, rebound, augmentation)” value ([1]; in vivo) is on record?
A: effectiveness declines and/or there is a shift of the RLS problems to the morning (rebound) or afternoon (augmentation)

Q: And the “alleviation of the complaint” value ([1]; long-term therapy, with improvement in quality of life and sleep)?
A: significant alleviation of the complaint

Q: What about the augmentation ([2]; human, in vivo) of the same compound?
A: typical augmentation during the day

Q: Which “effectiveness in RLS” value [1] does the source give for bromocryptine here?
A: found to be effective

Q: Which “effectiveness in RLS” value [1] does the source give for `CCCN1C[C@H](CSC)C[C@@H]2c3cccc4[nH]cc(c34)C[C@H]21` [pergolide] here?
A: found to be effective

Q: What about the “side effects preventing further dose increase” value ([2]; previous therapy of the 2 RLS patients) of the same compound?
A: side effects such as nausea, gastrointestinal problems and dizziness

Q: For `CC(C)C[C@H]1C(=O)N2CCC[C@H]2[C@]2(O)O[C@](NC(=O)[C@@H]3C[C@@H]4c5cccc6[nH]cc(c56)C[C@H]4N(C)C3)(C(C)C)C(=O)N12` [alphadihydroergocryptine], which “effectiveness in RLS” value [1] is on record?
A: found to be effective
